Measured values reported in US8802673B2, “Heterocyclic amine derivatives” (Hoffmann-La Roche Inc, priority 2011, dated 2014).

Legend:
mouse TAAR1 = mouse TAAR1 (Mus musculus (Mouse), UniProt Q923Y8); experiment: Radioligand binding assay on mouse TAAR1; conditions: mouse TAAR1 (first value of the cell), HEK-293 membranes; read-out: Ki (μM) mouse/rat
Method in brief: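 Membranes from HEK293 cells stably expressing mouse TAAR1, Kd of radioligand determined per batch by saturation. Compounds tested 10 pM to 10 μM in duplicate, incubated 1 h at 4 °C, then filtration over PEI-soaked GF/C filters and scintillation counting.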

rat TAAR1 = rat TAAR1 (Rattus norvegicus (Rat), UniProt Q923Y9); experiment: Radioligand binding assay on rat TAAR1; conditions: rat TAAR1 (second value of the cell), HEK-293 membranes; read-out: Ki (μM) mouse/rat
Method in brief: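 Membranes from HEK293 cells stably expressing rat TAAR1 were used, with radioligand Kd determined by saturation for each batch. Compounds (10 pM to 10 μM, in duplicate) were incubated for 1 h at 4 °C. Bound radioactivity was collected by filtration onto PEI-soaked GF/C filters and counted by scintillation.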

Sequence of mouse TAAR1 (Q923Y8 whole entry): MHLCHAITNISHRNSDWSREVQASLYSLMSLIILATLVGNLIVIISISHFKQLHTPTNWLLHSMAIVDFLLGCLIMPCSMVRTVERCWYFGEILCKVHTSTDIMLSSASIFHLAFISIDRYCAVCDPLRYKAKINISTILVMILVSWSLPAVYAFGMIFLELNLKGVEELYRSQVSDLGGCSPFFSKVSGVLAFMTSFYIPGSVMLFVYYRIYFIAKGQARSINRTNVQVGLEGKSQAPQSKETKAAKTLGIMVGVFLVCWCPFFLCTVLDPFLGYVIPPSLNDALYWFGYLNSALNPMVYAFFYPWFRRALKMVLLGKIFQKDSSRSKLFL
Sequence of rat TAAR1 (Q923Y9 whole entry): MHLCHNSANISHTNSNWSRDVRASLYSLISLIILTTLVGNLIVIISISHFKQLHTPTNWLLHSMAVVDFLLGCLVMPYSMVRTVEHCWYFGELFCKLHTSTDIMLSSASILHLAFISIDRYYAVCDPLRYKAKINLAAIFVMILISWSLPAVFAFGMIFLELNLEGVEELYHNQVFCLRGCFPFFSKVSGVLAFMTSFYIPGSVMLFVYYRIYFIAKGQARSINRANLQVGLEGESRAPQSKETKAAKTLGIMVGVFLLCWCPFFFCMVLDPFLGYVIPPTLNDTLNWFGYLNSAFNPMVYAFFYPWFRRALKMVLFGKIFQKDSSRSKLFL

SMILES: FC(F)(F)COc1cnc(Nc2ccc([C@H]3CNCCO3)cc2)nc1 [Example 136, ((S)-4-Morpholin-2-yl-phenyl)-[5-(2,2,2-trifluoro-ethoxy)-pyrimidin-2-yl]-amine]
- Ki (mouse TAAR1): 0.0051 µM
- Ki (rat TAAR1): 0.0494 µM

SMILES: FC(F)(F)COc1cnc(Nc2ccc([C@@H]3CNCCO3)cc2)nc1 [Example 137, ((R)-4-Morpholin-2-yl-phenyl)-[5-(2,2,2-trifluoro-ethoxy)-pyrimidin-2-yl]-amine]
- Ki (mouse TAAR1): 0.0037 µM
- Ki (rat TAAR1): 0.0026 µM

SMILES: COCCOc1cnc(Nc2ccc([C@H]3CNCCO3)cc2)nc1 [Example 138]
- Ki (mouse TAAR1): 0.0641 µM
- Ki (rat TAAR1): 1.36 µM

SMILES: COCCOc1cnc(Nc2ccc([C@@H]3CNCCO3)cc2)nc1 [Example 139]
- Ki (mouse TAAR1): 0.0667 µM
- Ki (rat TAAR1): 1.06 µM

SMILES: COc1ccc(-c2cnc(Nc3ccc([C@H]4CNCCO4)cc3)nc2)cc1OC [Example 141]
- Ki (mouse TAAR1): 0.0027 µM
- Ki (rat TAAR1): 0.0129 µM

SMILES: COc1ccc(-c2cnc(Nc3ccc([C@@H]4CNCCO4)cc3)nc2)cc1OC [Example 142]
- Ki (mouse TAAR1): 0.0027 µM
- Ki (rat TAAR1): 0.0146 µM

SMILES: Fc1cc([C@@H]2CNCCO2)ccc1Nc1ncc(OCC(F)(F)F)cn1 [Example 144, ((R)-2-Fluoro-4-morpholin-2-yl-phenyl)-[5-(2,2,2-trifluoro-ethoxy)-pyrimidin-2-yl]-amine]
- Ki (mouse TAAR1): 0.0042 µM
- Ki (rat TAAR1): 0.0049 µM

SMILES: Fc1cc([C@H]2CNCCO2)ccc1Nc1ncc(OCC(F)(F)F)cn1 [Example 145, ((S)-2-Fluoro-4-morpholin-2-yl-phenyl)-[5-(2,2,2-trifluoro-ethoxy)-pyrimidin-2-yl]-amine]
- Ki (mouse TAAR1): 0.0034 µM
- Ki (rat TAAR1): 0.0067 µM

SMILES: c1coc(-c2cnc(Nc3ccc([C@H]4CNCCO4)cc3)nc2)c1 [Example 147, (5-Furan-2-yl-pyrimidin-2-yl)-((S)-4-morpholin-2-yl-phenyl)-amine]
- Ki (mouse TAAR1): 0.0009 µM
- Ki (rat TAAR1): 0.0197 µM

SMILES: c1coc(-c2cnc(Nc3ccc([C@@H]4CNCCO4)cc3)nc2)c1 [Example 148, (5-Furan-2-yl-pyrimidin-2-yl)-((R)-4-morpholin-2-yl-phenyl)-amine]
- Ki (mouse TAAR1): 0.0017 µM
- Ki (rat TAAR1): 0.0083 µM

SMILES: COCCOc1cnc(Nc2ccc([C@@H]3CNCCO3)cc2F)nc1 [Example 151, ((R)-2-Fluoro-4-morpholin-2-yl-phenyl)-[5-(2-methoxy-ethoxy)-pyrimidin-2-yl]-amine]
- Ki (mouse TAAR1): 0.048 µM
- Ki (rat TAAR1): 0.0954 µM

SMILES: COCCOc1cnc(Nc2ccc([C@H]3CNCCO3)cc2F)nc1 [Example 152, ((S)-2-Fluoro-4-morpholin-2-yl-phenyl)-[5-(2-methoxy-ethoxy)-pyrimidin-2-yl]-amine]
- Ki (mouse TAAR1): 0.0196 µM
- Ki (rat TAAR1): 0.268 µM

SMILES: FC(F)(F)c1ncc(Nc2ccc([C@H]3CNCCO3)cc2)cn1 [Example 153, ((S)-4-Morpholin-2-yl-phenyl)-(2-trifluoromethyl-pyrimidin-5-yl)-amine]
- Ki (mouse TAAR1): 0.007 µM
- Ki (rat TAAR1): 0.84 µM

SMILES: FC(F)(F)c1ncc(Nc2ccc([C@@H]3CNCCO3)cc2)cn1 [Example 154, ((R)-4-Morpholin-2-yl-phenyl)-(2-trifluoromethyl-pyrimidin-5-yl)-amine]
- Ki (mouse TAAR1): 0.0096 µM
- Ki (rat TAAR1): 0.863 µM

SMILES: Cc1cnc(Nc2ccc([C@H]3CNCCO3)cc2)cn1 [Example 156, (5-Methyl-pyrazin-2-yl)-((S)-4-morpholin-2-yl-phenyl)-amine]
- Ki (mouse TAAR1): 0.0093 µM
- Ki (rat TAAR1): 0.833 µM

SMILES: Cc1cnc(Nc2ccc([C@@H]3CNCCO3)cc2)cn1 [Example 157, (5-Methyl-pyrazin-2-yl)-((R)-4-morpholin-2-yl-phenyl)-amine]
- Ki (mouse TAAR1): 0.0132 µM
- Ki (rat TAAR1): > 10 µM

SMILES: CNC(=O)c1cnc(Nc2ccc([C@H]3CNCCO3)cc2)nc1 [Example 158, 2-((S)-4-Morpholin-2-yl-phenylamino)-pyrimidine-5-carboxylic acid methylamide]
- Ki (mouse TAAR1): 1.02 µM
- Ki (rat TAAR1): 1.85 µM

SMILES: CNC(=O)c1cnc(Nc2ccc([C@@H]3CNCCO3)cc2)nc1 [Example 159, 2-((R)-4-Morpholin-2-yl-phenylamino)-pyrimidine-5-carboxylic acid methylamide]
- Ki (mouse TAAR1): 1.34 µM
- Ki (rat TAAR1): 1.76 µM

SMILES: Cc1ccc(Nc2ccc([C@H]3CNCCO3)cc2)nn1 [Example 160, (6-Methyl-pyridazin-3-yl)-((S)-4-morpholin-2-yl-phenyl)-amine]
- Ki (mouse TAAR1): 0.0061 µM
- Ki (rat TAAR1): 2.75 µM

SMILES: c1ccc(Cn2ccc(Nc3ccc([C@H]4CNCCO4)cc3)n2)cc1 [Example 161, (1-Benzyl-1H-pyrazol-3-yl)-((S)-4-morpholin-2-yl-phenyl)-amine]
- Ki (mouse TAAR1): 0.0016 µM
- Ki (rat TAAR1): 0.223 µM

SMILES: c1ccc(Cn2ccc(Nc3ccc([C@@H]4CNCCO4)cc3)n2)cc1 [Example 162, (1-Benzyl-1H-pyrazol-3-yl)-((R)-4-morpholin-2-yl-phenyl)-amine]
- Ki (mouse TAAR1): 0.002 µM
- Ki (rat TAAR1): 0.127 µM

SMILES: c1ccc(-n2ccc(Nc3ccc([C@H]4CNCCO4)cc3)n2)cc1 [Example 163, ((S)-4-Morpholin-2-yl-phenyl)-(1-phenyl-1H-pyrazol-3-yl)-amine]
- Ki (mouse TAAR1): 0.0026 µM
- Ki (rat TAAR1): 0.0332 µM

SMILES: c1ccc(-n2ccc(Nc3ccc([C@@H]4CNCCO4)cc3)n2)cc1 [Example 164, ((R)-4-Morpholin-2-yl-phenyl)-(1-phenyl-1H-pyrazol-3-yl)-amine]
- Ki (mouse TAAR1): 0.0006 µM
- Ki (rat TAAR1): 0.025 µM

SMILES: c1cc([C@H]2CNCCO2)ccc1Nc1ccc(C2COC2)cn1 [Example 165, ((S)-4-Morpholin-2-yl-phenyl)-(5-oxetan-3-yl-pyridin-2-yl)-amine]
- Ki (mouse TAAR1): 0.011 µM
- Ki (rat TAAR1): 0.34 µM

SMILES: Cc1cc([C@@H]2CNCCO2)ccc1Nc1ncc(C(F)(F)F)cn1 [Example 166, ((R)-2-Methyl-4-morpholin-2-yl-phenyl)-(5-trifluoromethyl-pyrimidin-2-yl)-amine]
- Ki (mouse TAAR1): 0.0301 µM
- Ki (rat TAAR1): 0.159 µM

SMILES: Cc1cc([C@H]2CNCCO2)ccc1Nc1ncc(C(F)(F)F)cn1 [Example 167, ((S)-2-Methyl-4-morpholin-2-yl-phenyl)-(5-trifluoromethyl-pyrimidin-2-yl)-amine]
- Ki (mouse TAAR1): 0.112 µM
- Ki (rat TAAR1): 1.35 µM

SMILES: FC(F)(F)c1cnc(Nc2ccc([C@@H]3CNCCO3)cc2Cl)nc1 [Example 168, ((R)-2-Chloro-4-morpholin-2-yl-phenyl)-(5-trifluoromethyl-pyrimidin-2-yl)-amine]
- Ki (mouse TAAR1): 0.0077 µM
- Ki (rat TAAR1): 0.0065 µM

SMILES: FC(F)(F)c1cnc(Nc2ccc([C@H]3CNCCO3)cc2Cl)nc1 [Example 169, ((S)-2-Chloro-4-morpholin-2-yl-phenyl)-(5-trifluoromethyl-pyrimidin-2-yl)-amine]
- Ki (mouse TAAR1): 0.0243 µM
- Ki (rat TAAR1): 0.0397 µM

SMILES: FC(F)(F)COc1ccnc(Nc2ccc([C@@H]3CNCCO3)cc2)n1 [Example 172, ((R)-4-Morpholin-2-yl-phenyl)-[4-(2,2,2-trifluoro-ethoxy)-pyrimidin-2-yl]-amine]
- Ki (mouse TAAR1): 0.0035 µM
- Ki (rat TAAR1): 0.0162 µM

SMILES: FC(F)(F)c1ccnc(Nc2ccc([C@@H]3CNCCO3)cc2)n1 [Example 173, (R)—N-(4-(Morpholin-2-yl)phenyl)-4-(trifluoromethyl)pyrimidin-2-amine]
- Ki (mouse TAAR1): 0.0044 µM
- Ki (rat TAAR1): 0.0625 µM

SMILES: FC(F)Oc1cnc(Oc2cnc(Nc3ccc([C@@H]4CNCCO4)cc3)nc2)nc1 [Example 174, (R)-5-(5-(Difluoromethoxy)pyrimidin-2-yloxy)-N-(4-(morpholin-2-yl)phenyl)pyrimidin-2-amine]
- Ki (mouse TAAR1): 0.0088 µM
- Ki (rat TAAR1): 0.0628 µM

SMILES: FC(F)Oc1cnc(Oc2cnc(Nc3ccc([C@@H]4CNCCO4)cc3Cl)nc2)nc1 [Example 175, (R)—N-(2-Chloro-4-(morpholin-2-yl)phenyl)-5-(5-(difluoromethoxy)pyrimidin-2-yloxy)pyrimidin-2-amine]
- Ki (mouse TAAR1): 0.006 µM
- Ki (rat TAAR1): 0.0066 µM

SMILES: c1cnc(Nc2ccc([C@@H]3CNCCO3)cc2)nc1 [Example 176, (R)—N-(4-(Morpholin-2-yl)phenyl)pyrimidin-2-amine]
- Ki (mouse TAAR1): 0.152 µM
- Ki (rat TAAR1): > 10 µM

SMILES: c1ccc2nc(Nc3ccc([C@@H]4CNCCO4)cc3)ncc2c1 [Example 177, ((R)-4-Morpholin-2-yl-phenyl)-quinazolin-2-yl-amine]
- Ki (mouse TAAR1): 0.0028 µM
- Ki (rat TAAR1): 0.0299 µM

SMILES: Cc1cc(C(F)(F)F)nc(Nc2ccc([C@@H]3CNCCO3)cc2)n1 [Example 178, (4-Methyl-6-trifluoromethyl-pyrimidin-2-yl)-((R)-4-morpholin-2-yl-phenyl)-amine]
- Ki (mouse TAAR1): 0.0043 µM
- Ki (rat TAAR1): 0.0298 µM

SMILES: FC(F)Oc1cnc(Nc2ccc([C@@H]3CNCCO3)cc2)nc1 [Example 179, (R)-5-(Difluoromethoxy)-N-(4-(morpholin-2-yl)phenyl)pyrimidin-2-amine]
- Ki (mouse TAAR1): 0.0047 µM
- Ki (rat TAAR1): 0.0517 µM

SMILES: COc1cc(Cl)nc(Nc2ccc([C@@H]3CNCCO3)cc2)n1 [Example 180, (4-Chloro-6-methoxy-pyrimidin-2-yl)-((R)-4-morpholin-2-yl-phenyl)-amine]
- Ki (mouse TAAR1): 0.0058 µM
- Ki (rat TAAR1): 0.033 µM

SMILES: N#Cc1ccnc(Nc2ccc([C@@H]3CNCCO3)cc2)n1 [Example 181, 2-((R)-4-Morpholin-2-yl-phenylamino)-pyrimidine-4-carbonitrile]
- Ki (mouse TAAR1): 0.0084 µM
- Ki (rat TAAR1): 0.398 µM

SMILES: Cc1cc(C)nc(Nc2ccc([C@@H]3CNCCO3)cc2)n1 [Example 182, (4,6-Dimethyl-pyrimidin-2-yl)-((R)-4-morpholin-2-yl-phenyl)-amine]
- Ki (mouse TAAR1): 0.0144 µM
- Ki (rat TAAR1): 0.447 µM

SMILES: COc1cc(OC)nc(Nc2ccc([C@@H]3CNCCO3)cc2)n1 [Example 183, (4,6-Dimethoxy-pyrimidin-2-yl)-((R)-4-morpholin-2-yl-phenyl)-amine]
- Ki (mouse TAAR1): 0.0094 µM
- Ki (rat TAAR1): 0.174 µM

SMILES: FC(F)(F)c1cnc(Nc2ccc([C@@H]3CNCCO3)cc2)c(Cl)c1 [Example 185, (R)-3-Chloro-N-(4-(morpholin-2-yl)phenyl)-5-(trifluoromethyl)pyridin-2-amine]
- Ki (mouse TAAR1): 0.0549 µM
- Ki (rat TAAR1): 0.0888 µM
